Series [1] concerns the target T1, Epidermal growth factor receptor (Homo sapiens, UniProt P00533, L858R/T790M).
The target of series [2] is Epidermal growth factor receptor (Homo sapiens, UniProt P00533). The experiment in a line: Inhibition of wild type EGFR (unknown origin) expressed in Sf9 cells pre-incubated for 30 mins before substrate and ATP addition by homogeneous time-resolved FRET assay.
In another series the test system is NCI-H1975. The experiment in a line: Growth inhibition of human NCI-H1975 cells expressing EGFR L858R/T790M mutant incubated for 96 hrs by cell-titer Glo reagent based assay. The note with it: NCI-H1975, 96 h. The format is functional.
For series [3], the target named is T2, Epidermal growth factor receptor (Homo sapiens, UniProt P00533, L858R).
Series [4] is described as follows: Growth inhibition of human PC9 cells with del1 deletion incubated for 96 hrs by cell-titer Glo reagent based assay. The format is functional. The note with it: PC-9, 96 h.
In series [5] the target is Proto-oncogene tyrosine-protein kinase Src (Homo sapiens, UniProt P12931). The experiment in a line: Inhibition of wild type cSrc (251 to 533 residues) (unknown origin) pre-incubated for 30 mins before substrate and ATP addition by HTRF assay. On the technique in general: In TR-FRET formats the signal depends on donor and acceptor labels being close together.
Another series has as its system A-431. The experiment in a line: Growth inhibition of human A431 cells incubated for 96 hrs by cell-titer Glo reagent based assay. The conditions noted are these: A-431, 96 h. The format is functional.
Series [6] deals with Proto-oncogene tyrosine-protein kinase Src (Homo sapiens, UniProt P12931, S348C/T341M). The experiment in a line: Inhibition of cSrc T338M/S345C mutant (unknown origin) pre-incubated for 30 mins before substrate and ATP addition by HTRF assay.
The target of series [7] is Proto-oncogene tyrosine-protein kinase Src (Homo sapiens, UniProt P12931, T341M). The experiment in a line: Inhibition of cSrc T338M mutant (unknown origin) pre-incubated for 30 mins before substrate and ATP addition by HTRF assay.
The subject of series [8] is Epidermal growth factor receptor (Homo sapiens), P00533 [T790M]. The experiment in a line: Binding affinity to EGFR T790M mutant (unknown origin) expressed in Sf9 cells by ESI-MS method.
Series [9] relates to Epidermal growth factor receptor (Homo sapiens), P00533 [L858R,T790M]. The experiment in a line: Inhibition of EGFR L858R/T790M mutant (unknown origin) expressed in Sf9 cells assessed as enzyme inactivation constant by enzyme kinetics assay.
The nature of series [10]: Kinetic solubility in 50 mM Hepes buffer at pH 7.4. The format is physicochemical. The conditions noted are these: read-out: Kinetic_solubility.
A short description of series [11]: Permeability of the compound after 16 hrs assessed as compound flux by PAMPA method. The format is physicochemical. (In general: In PAMPA a lipid-coated filter parts donor from acceptor wells.)
Another series is filed under the species Homo sapiens. The experiment in a line: Selectivity index, ratio of IC50 for cSrc T338M mutant (unknown origin) to IC50 for cSrc T338M/S345C mutant (unknown origin).
The target in series [12] is T1, Epidermal growth factor receptor. The experiment in a line: Inhibition of EGFR L858R/T790M mutant (unknown origin) expressed in Sf9 cells by enzyme kinetics assay.
Series [13] has as its target T2, Epidermal growth factor receptor. The experiment in a line: Inhibition of EGFR L858R mutant (unknown origin) expressed in Sf9 cells by enzyme kinetics assay.
Series [14] deals with Epidermal growth factor receptor (Homo sapiens), P00533 [L858R]. The experiment in a line: Inhibition of EGFR L858R mutant (unknown origin) expressed in Sf9 cells assessed as enzyme inactivation constant by enzyme kinetics assay.
The nature of series [15]: Growth inhibition of human HCC827 cells with exon 19 deletion and delE746-A750 incubated for 96 hrs by cell-titer Glo reagent based assay. The conditions noted are these: HCC827, 96 h. The format is functional.
Series [16] relates to Epidermal growth factor receptor (Homo sapiens), P00533 [T790M]. The experiment in a line: Binding affinity to EGFR T790M mutant (unknown origin) expressed in Sf9 cells assessed as covalent modification at Cys797 residue nano-LC-MS/MS method.
A short description of series [17]: Efflux ratio in human Caco2 cells incubated for 2 hrs. The format is ADME, cell-based. The note with it: Caco-2. Background: Caco-2 monolayers are a common model of the intestinal barrier.

The structures appear in SMILES notation. pIC50, pKi: −log10 of the molar value. ≈ marks a conversion by molar mass, not a printed value. Calls of active or inactive are those of the source. No cut-off for these calls is given here. Where only a bound is given, the exact number is not on record here.

What is called pIC50 is the IC50 on a negative log10 scale, so that one unit is a factor of ten. One may read the GI50 as the concentration giving 50% growth inhibition. Read a high GI50 as lower sensitivity of the cells. Take `C=CC(=O)Nc1ccc2c(Nc3cc[nH]n3)nc(-c3ccccc3)nc2c1`: the negative logarithm of the IC50 (pIC50) was 5.66 in series [1]; less than 5.00 in series [2]; 5.72 in series [3]; 6.68 in series [5]; 7.37 in series [6]; 7.19 in series [7]. For the same compound, the GI50 with NCI-H1975 stood at 1.6 µM; in series [4], 1.9 µM; in the series on A-431, 0.7 µM.
In general, pKi refers to the negative decadic logarithm of the Ki, by convention in mol/L. The term efflux ratio denotes the permeability from basolateral to apical divided by that in the opposite direction, in the common usage. As to `C=CC(=O)Nc1cccc(Oc2nc(Nc3cc(C)[nH]n3)cc(N3CCN(C)CC3)n2)c1`, the pIC50 in series [1] is 6.30; in series [2] it was less than 5.00; in series [3] it was 7.52; in series [6] it was 7.55; in series [7], 6.77. Moreover, the outcome in series [8] and in [16] was Active. Further, the GI50 worked out at 20 µM in the series on NCI-H1975, 8.2 µM in series [15] and 5.7 µM in the series with A-431. In addition, the Kinact in [9] is 0.116 min⁻¹; in series [14], 0.017 min⁻¹. In addition, in series [10], the solubility kinetic amounted to 432 µM (≈ 188 µg/mL). Moreover, the permeability in series [11] worked out at 7%. Also, the Ratio IC50 in the series listed under Homo sapiens came out at 5. For the same compound, the pKi in series [12] is 9.19; in series [13] it was 7.15. Also, the efflux ratio at 2 h in [17] is 32.

Values taken from ChEMBL document CHEMBL3603765, “Targeting Drug Resistance in EGFR with Covalent Inhibitors: A Structure-Based Design Approach” (J Med Chem, 2015).
